According to the kinase profiling compilation of Christmann-Franck et al. (2016):

Assays:
Test in all cases: Caliper, Mobility shift assay off-chip
[1] = target: AKT1 (human) (UniProt P31749)
[2] = target: ALK (human) (UniProt Q9UM73)
[3] = target: BRSK2 (human) (UniProt Q8IWQ3)
[4] = target: CDK2 CCNA2 (human) (UniProt P24941+P20248)
[5] = target: CHEK1 (human) (UniProt O14757)
[6] = target: EGFR (human) (UniProt P00533)
[7] = target: EPHA2 (human) (UniProt P29317)
[8] = target: EPHA4 (human) (UniProt P54764)
[9] = target: FGFR1 (human) (UniProt P11362)
[10] = target: FGFR3 (human) (UniProt P22607)
[11] = target: FLT3 (human) (UniProt P36888)
[12] = target: IGF1R (human) (UniProt P08069)
[13] = target: IKBKB (human) (UniProt O14920)
[14] = target: KDR (human) (UniProt P35968)
[15] = target: KIT (human) (UniProt P10721)
[16] = target: MAP3K7 (human) (UniProt O43318)
[17] = target: MAPK11 (human) (UniProt Q15759)
[18] = target: MAPK12 (human) (UniProt P53778)
[19] = target: MAPK13 (human) (UniProt O15264)
[20] = target: MAPK14 (human) (UniProt Q16539)
[21] = target: MAPK8 (human) (UniProt P45983)
[22] = target: MAPKAPK2 (human) (UniProt P49137)
[23] = target: MAPKAPK5 (human) (UniProt Q8IW41)
[24] = target: NEK2 (human) (UniProt P51955)
[25] = target: NEK6 (human) (UniProt Q9HC98)
[26] = target: PAK4 (human) (UniProt O96013)
[27] = target: PIM1 (human) (UniProt P11309)
[28] = target: PIM2 (human) (UniProt Q9P1W9)
[29] = target: PLK3 (human) (UniProt Q9H4B4)
[30] = target: PRKCA (human) (UniProt P17252)
[31] = target: PRKCG (human) (UniProt P05129)
[32] = target: PRKCI (human) (UniProt P41743)
[33] = target: RAF1 (human) (UniProt P04049)
[34] = target: RIPK2 (human) (UniProt O43353)
[35] = target: ROCK1 (human) (UniProt Q13464)
[36] = target: RPS6KA1 KD1 KD2 (human) (UniProt Q15418)
[37] = target: RPS6KA5 KD1 KD2 (human) (UniProt O75582)
[38] = target: RPS6KB1 (human) (UniProt P23443)
[39] = target: SRC (human) (UniProt P12931)
[40] = target: TEK (human) (UniProt Q02763)
[41] = target: ZAP70 (human) (UniProt P43403)

Sequence of MAPK12 (human) (P53778 whole entry, looked up): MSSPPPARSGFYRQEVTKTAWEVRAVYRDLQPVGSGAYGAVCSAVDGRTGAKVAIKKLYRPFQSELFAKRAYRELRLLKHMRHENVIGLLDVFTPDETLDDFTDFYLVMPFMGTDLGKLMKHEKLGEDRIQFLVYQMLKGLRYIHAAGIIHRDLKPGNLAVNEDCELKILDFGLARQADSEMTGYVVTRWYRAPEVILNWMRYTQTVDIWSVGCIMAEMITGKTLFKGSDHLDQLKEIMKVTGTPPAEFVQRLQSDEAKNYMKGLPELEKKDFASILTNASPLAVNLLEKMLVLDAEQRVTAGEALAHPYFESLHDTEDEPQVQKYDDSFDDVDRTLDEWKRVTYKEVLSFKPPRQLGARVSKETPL
Sequence of EPHA4 (human) (P54764 whole entry, looked up): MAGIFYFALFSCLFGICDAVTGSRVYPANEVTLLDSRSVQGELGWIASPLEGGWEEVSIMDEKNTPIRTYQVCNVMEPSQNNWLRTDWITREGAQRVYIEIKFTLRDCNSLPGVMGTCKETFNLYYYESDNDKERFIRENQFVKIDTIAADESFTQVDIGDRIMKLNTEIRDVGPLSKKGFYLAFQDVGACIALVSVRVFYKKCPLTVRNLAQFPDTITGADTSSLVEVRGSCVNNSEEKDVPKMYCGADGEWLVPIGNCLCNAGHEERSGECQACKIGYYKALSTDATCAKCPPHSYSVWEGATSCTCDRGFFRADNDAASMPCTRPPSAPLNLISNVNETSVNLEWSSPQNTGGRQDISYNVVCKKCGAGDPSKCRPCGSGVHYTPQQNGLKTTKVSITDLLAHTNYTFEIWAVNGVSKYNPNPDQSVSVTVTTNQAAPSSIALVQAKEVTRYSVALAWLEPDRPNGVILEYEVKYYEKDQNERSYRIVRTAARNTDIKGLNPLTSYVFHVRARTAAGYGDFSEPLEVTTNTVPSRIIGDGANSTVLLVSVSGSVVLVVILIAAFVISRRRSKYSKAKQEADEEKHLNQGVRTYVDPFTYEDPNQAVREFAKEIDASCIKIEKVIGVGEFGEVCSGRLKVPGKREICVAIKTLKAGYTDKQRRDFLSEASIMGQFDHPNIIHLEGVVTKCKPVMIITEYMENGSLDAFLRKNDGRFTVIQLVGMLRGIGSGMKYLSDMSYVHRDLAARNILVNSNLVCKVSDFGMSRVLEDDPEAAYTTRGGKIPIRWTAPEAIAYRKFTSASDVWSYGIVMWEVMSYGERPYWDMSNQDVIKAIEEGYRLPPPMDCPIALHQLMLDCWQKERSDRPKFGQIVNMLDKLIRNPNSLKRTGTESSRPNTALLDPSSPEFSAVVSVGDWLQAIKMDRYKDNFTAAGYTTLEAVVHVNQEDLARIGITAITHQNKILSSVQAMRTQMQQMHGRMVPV
Sequence of AKT1 (human) (P31749 whole entry, looked up): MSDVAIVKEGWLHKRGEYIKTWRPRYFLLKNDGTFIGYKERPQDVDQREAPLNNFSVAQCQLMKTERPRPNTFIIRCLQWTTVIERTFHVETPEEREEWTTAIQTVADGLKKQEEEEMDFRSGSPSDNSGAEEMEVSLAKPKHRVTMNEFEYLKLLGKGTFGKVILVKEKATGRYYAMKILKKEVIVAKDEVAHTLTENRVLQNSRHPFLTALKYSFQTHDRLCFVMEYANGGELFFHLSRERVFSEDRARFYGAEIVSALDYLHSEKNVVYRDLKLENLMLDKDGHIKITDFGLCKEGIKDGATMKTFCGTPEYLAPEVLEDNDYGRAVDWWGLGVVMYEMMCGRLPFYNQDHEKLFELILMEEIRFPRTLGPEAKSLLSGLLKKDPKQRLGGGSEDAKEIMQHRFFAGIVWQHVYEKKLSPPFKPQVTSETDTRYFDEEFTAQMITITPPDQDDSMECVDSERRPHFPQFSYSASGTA
Sequence of RPS6KA5 KD1 KD2 (human) (O75582 whole entry, looked up): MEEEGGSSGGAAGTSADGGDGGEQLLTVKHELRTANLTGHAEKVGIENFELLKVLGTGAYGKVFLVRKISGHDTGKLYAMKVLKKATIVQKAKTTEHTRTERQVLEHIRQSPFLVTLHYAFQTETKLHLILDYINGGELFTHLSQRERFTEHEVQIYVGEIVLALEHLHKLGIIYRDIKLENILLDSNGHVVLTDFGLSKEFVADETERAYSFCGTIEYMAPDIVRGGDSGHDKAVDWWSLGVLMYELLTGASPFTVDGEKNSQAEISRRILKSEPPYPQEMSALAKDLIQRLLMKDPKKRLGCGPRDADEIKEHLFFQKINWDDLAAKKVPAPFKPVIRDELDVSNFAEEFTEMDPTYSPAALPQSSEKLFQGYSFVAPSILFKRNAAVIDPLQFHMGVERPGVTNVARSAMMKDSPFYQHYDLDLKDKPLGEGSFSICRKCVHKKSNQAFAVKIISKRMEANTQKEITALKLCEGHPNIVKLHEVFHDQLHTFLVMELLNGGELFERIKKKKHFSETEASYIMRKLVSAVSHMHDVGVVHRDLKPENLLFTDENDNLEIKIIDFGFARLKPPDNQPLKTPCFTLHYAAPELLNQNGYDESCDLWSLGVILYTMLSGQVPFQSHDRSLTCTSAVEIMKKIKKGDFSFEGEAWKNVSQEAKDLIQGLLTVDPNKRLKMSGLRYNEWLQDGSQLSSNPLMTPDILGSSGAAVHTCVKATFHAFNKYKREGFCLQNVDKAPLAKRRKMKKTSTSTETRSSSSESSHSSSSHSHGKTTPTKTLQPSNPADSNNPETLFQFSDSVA
Sequence of BRSK2 (human) (Q8IWQ3 whole entry, looked up): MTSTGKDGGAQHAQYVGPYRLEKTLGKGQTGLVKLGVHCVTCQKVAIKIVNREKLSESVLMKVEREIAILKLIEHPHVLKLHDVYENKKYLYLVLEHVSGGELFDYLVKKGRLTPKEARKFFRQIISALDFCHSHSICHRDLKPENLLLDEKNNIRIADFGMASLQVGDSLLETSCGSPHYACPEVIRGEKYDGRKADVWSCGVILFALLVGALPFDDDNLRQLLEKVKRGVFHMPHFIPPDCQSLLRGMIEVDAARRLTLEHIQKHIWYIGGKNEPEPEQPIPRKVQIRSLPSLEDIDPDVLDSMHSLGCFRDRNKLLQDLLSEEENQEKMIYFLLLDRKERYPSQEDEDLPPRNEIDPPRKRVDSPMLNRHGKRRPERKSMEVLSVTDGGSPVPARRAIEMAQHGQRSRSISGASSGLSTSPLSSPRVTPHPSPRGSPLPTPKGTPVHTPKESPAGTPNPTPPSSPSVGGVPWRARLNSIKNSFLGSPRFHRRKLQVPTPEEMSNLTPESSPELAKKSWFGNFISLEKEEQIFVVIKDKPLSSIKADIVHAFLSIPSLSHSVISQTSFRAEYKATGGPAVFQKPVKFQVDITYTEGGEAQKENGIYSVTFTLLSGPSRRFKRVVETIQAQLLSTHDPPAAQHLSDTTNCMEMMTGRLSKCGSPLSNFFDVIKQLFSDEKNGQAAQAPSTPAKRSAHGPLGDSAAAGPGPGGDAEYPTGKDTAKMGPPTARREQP
Sequence of FGFR3 (human) (P22607 whole entry, looked up): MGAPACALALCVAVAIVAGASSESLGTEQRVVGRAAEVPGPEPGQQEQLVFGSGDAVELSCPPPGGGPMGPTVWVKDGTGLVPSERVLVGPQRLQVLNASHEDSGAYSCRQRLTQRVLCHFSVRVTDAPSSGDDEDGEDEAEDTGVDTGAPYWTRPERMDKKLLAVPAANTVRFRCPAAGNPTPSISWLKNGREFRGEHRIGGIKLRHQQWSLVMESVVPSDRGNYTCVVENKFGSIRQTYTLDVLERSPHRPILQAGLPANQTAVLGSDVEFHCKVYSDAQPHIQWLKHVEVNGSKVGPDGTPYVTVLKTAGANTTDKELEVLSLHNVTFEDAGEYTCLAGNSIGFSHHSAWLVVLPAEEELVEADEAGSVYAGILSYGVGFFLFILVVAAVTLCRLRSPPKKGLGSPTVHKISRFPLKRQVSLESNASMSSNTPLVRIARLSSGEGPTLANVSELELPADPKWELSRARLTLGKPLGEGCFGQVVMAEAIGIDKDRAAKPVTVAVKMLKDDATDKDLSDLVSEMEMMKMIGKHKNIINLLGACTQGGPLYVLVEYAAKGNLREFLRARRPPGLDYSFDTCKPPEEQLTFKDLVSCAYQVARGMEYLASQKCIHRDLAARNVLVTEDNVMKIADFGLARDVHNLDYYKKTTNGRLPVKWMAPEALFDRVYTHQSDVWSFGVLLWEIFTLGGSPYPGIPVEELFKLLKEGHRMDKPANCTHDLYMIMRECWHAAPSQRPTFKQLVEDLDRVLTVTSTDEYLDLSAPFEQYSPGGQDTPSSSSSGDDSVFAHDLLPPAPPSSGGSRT
Sequence of RPS6KB1 (human) (P23443 whole entry, looked up): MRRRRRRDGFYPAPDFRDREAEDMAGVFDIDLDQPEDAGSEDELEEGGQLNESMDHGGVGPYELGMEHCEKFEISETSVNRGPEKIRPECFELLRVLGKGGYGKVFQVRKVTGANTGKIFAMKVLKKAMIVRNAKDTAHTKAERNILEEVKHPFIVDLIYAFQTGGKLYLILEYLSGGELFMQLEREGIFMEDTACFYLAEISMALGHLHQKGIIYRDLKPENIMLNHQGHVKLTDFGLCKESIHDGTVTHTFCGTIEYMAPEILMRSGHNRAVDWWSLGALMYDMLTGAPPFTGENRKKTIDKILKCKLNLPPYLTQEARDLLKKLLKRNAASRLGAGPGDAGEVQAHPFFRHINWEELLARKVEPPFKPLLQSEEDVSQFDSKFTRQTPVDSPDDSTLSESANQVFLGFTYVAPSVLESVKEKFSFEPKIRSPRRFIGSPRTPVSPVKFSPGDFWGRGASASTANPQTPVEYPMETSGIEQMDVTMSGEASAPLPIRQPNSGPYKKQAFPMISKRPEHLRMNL
Sequence of NEK6 (human) (Q9HC98 whole entry, looked up): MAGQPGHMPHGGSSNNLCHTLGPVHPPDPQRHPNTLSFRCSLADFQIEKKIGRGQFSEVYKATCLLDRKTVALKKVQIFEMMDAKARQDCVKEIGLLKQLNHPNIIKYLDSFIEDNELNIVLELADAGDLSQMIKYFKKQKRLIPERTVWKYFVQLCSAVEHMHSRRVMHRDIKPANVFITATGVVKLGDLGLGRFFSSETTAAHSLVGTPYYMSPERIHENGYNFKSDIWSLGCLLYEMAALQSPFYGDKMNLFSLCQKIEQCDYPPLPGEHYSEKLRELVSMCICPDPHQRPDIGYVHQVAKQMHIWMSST

Compound CC(C)(C)c1nc2c3ccc(F)cc3c3c(=O)[nH]ccc3c2[nH]1 has a residual activity ([1]; compound 10.0 µM) of 39%, a residual activity ([2]; compound 10.0 µM) of 26% and a residual activity ([3]; compound 10.0 µM) of 1%. It also gave a residual activity ([4]; compound 10.0 µM) of 53%, a residual activity ([5]; compound 10.0 µM) of 10% and a residual activity ([6]; compound 10.0 µM) of 75%. It also gave a residual activity ([7]; compound 10.0 µM) of 96%, a residual activity ([8]; compound 10.0 µM) of 101% and a residual activity ([9]; compound 10.0 µM) of 32%. It also gave a residual activity ([10]; compound 10.0 µM) of 30%, a residual activity ([11]; compound 10.0 µM) of 25% and a residual activity ([12]; compound 10.0 µM) of 61%. For the same compound, the residual activity ([13]; compound 10.0 µM) was 15%, the residual activity ([14]; compound 10.0 µM) was 92% and the residual activity ([15]; compound 10.0 µM) was 40%. For the same compound, the residual activity ([16]; compound 10.0 µM) was 12%, the residual activity ([17]; compound 10.0 µM) was 25% and the residual activity ([18]; compound 10.0 µM) was 46%. It also gave a residual activity ([19]; compound 10.0 µM) of 46%, a residual activity ([20]; compound 10.0 µM) of 51% and a residual activity ([21]; compound 10.0 µM) of 10%. For the same compound, the residual activity ([22]; compound 10.0 µM) was 17%, the residual activity ([23]; compound 10.0 µM) was 17% and the residual activity ([24]; compound 10.0 µM) was 96%. For the same compound, the residual activity ([25]; compound 10.0 µM) was 48%, the residual activity ([26]; compound 10.0 µM) was 78% and the residual activity ([27]; compound 10.0 µM) was 49%. The residual activity ([28]; compound 10.0 µM) was 36%, the residual activity ([29]; compound 10.0 µM) was 54% and the residual activity ([30]; compound 10.0 µM) was 8%. For the same compound, the residual activity ([31]; compound 10.0 µM) was 21%, the residual activity ([32]; compound 10.0 µM) was 73% and the residual activity ([33]; compound 10.0 µM) was 128%. The residual activity ([34]; compound 10.0 µM) was 20%, the residual activity ([35]; compound 10.0 µM) was 26% and the residual activity ([36]; compound 10.0 µM) was 68%. It also gave a residual activity ([37]; compound 10.0 µM) of 25%, a residual activity ([38]; compound 10.0 µM) of 17% and a residual activity ([39]; compound 10.0 µM) of 94%. For the same compound, the residual activity ([40]; compound 10.0 µM) was 105% and the residual activity ([41]; compound 10.0 µM) was 117%.

Cc1n[nH]c2c1c(=O)n(CCCN)c1ccc(Cl)cc21 was tested, and the residual activity ([1]; compound 1.0 µM) was 102%, the residual activity ([2]; compound 1.0 µM) was 116% and the residual activity ([3]; compound 1.0 µM) was 18%. It also gave a residual activity ([4]; compound 1.0 µM) of 104%, a residual activity ([5]; compound 1.0 µM) of 5% and a residual activity ([6]; compound 1.0 µM) of 110%. The residual activity ([7]; compound 1.0 µM) was 107%, the residual activity ([8]; compound 1.0 µM) was 104% and the residual activity ([9]; compound 1.0 µM) was 43%. The residual activity ([10]; compound 1.0 µM) was 102%, the residual activity ([11]; compound 1.0 µM) was 25% and the residual activity ([12]; compound 1.0 µM) was 145%. For the same compound, the residual activity ([13]; compound 1.0 µM) was 104%, the residual activity ([14]; compound 1.0 µM) was 95% and the residual activity ([15]; compound 1.0 µM) was 112%. It also gave a residual activity ([16]; compound 1.0 µM) of 56%, a residual activity ([17]; compound 1.0 µM) of 99% and a residual activity ([18]; compound 1.0 µM) of 107%. It also gave a residual activity ([19]; compound 1.0 µM) of 97%, a residual activity ([20]; compound 1.0 µM) of 94% and a residual activity ([21]; compound 1.0 µM) of 106%. For the same compound, the residual activity ([22]; compound 1.0 µM) was 88%, the residual activity ([23]; compound 1.0 µM) was 80% and the residual activity ([24]; compound 1.0 µM) was 118%. The residual activity ([25]; compound 1.0 µM) was 101%, the residual activity ([26]; compound 1.0 µM) was 69% and the residual activity ([27]; compound 1.0 µM) was 97%. The residual activity ([28]; compound 1.0 µM) was 92%, the residual activity ([29]; compound 1.0 µM) was 95% and the residual activity ([30]; compound 1.0 µM) was 107%. For the same compound, the residual activity ([31]; compound 1.0 µM) was 75%, the residual activity ([32]; compound 1.0 µM) was 114% and the residual activity ([33]; compound 1.0 µM) was 106%. For the same compound, the residual activity ([34]; compound 1.0 µM) was 93%, the residual activity ([35]; compound 1.0 µM) was 66% and the residual activity ([36]; compound 1.0 µM) was 2%. The residual activity ([37]; compound 1.0 µM) was 68%, the residual activity ([38]; compound 1.0 µM) was 76% and the residual activity ([39]; compound 1.0 µM) was 104%. The residual activity ([40]; compound 1.0 µM) was 106% and the residual activity ([41]; compound 1.0 µM) was 114%.

O=C(NCCCNc1nc(Nc2cccc(NC(=O)N3CCCC3)c2)ncc1I)c1cccs1 was tested, and the residual activity ([1]; compound 1.0 µM) was 103%, the residual activity ([2]; compound 1.0 µM) was 100% and the residual activity ([3]; compound 1.0 µM) was 81%. It also gave a residual activity ([4]; compound 1.0 µM) of 99%, a residual activity ([5]; compound 1.0 µM) of 54% and a residual activity ([6]; compound 1.0 µM) of 109%. For the same compound, the residual activity ([7]; compound 1.0 µM) was 127%, the residual activity ([8]; compound 1.0 µM) was 100% and the residual activity ([9]; compound 1.0 µM) was 48%. It also gave a residual activity ([10]; compound 1.0 µM) of 88%, a residual activity ([11]; compound 1.0 µM) of 9% and a residual activity ([12]; compound 1.0 µM) of 103%. It also gave a residual activity ([13]; compound 1.0 µM) of 105%, a residual activity ([14]; compound 1.0 µM) of 106% and a residual activity ([15]; compound 1.0 µM) of 100%. For the same compound, the residual activity ([16]; compound 1.0 µM) was 32%, the residual activity ([17]; compound 1.0 µM) was 85% and the residual activity ([18]; compound 1.0 µM) was 98%. It also gave a residual activity ([19]; compound 1.0 µM) of 115%, a residual activity ([20]; compound 1.0 µM) of 108% and a residual activity ([21]; compound 1.0 µM) of 94%. The residual activity ([22]; compound 1.0 µM) was 96%, the residual activity ([23]; compound 1.0 µM) was 78% and the residual activity ([24]; compound 1.0 µM) was 93%. The residual activity ([25]; compound 1.0 µM) was 114%, the residual activity ([26]; compound 1.0 µM) was 99% and the residual activity ([27]; compound 1.0 µM) was 103%. It also gave a residual activity ([28]; compound 1.0 µM) of 91%, a residual activity ([29]; compound 1.0 µM) of 111% and a residual activity ([30]; compound 1.0 µM) of 98%. The residual activity ([31]; compound 1.0 µM) was 86%, the residual activity ([32]; compound 1.0 µM) was 121% and the residual activity ([33]; compound 1.0 µM) was 94%. It also gave a residual activity ([34]; compound 1.0 µM) of 111%, a residual activity ([35]; compound 1.0 µM) of 96% and a residual activity ([36]; compound 1.0 µM) of 83%. The residual activity ([37]; compound 1.0 µM) was 93%, the residual activity ([38]; compound 1.0 µM) was 85% and the residual activity ([39]; compound 1.0 µM) was 86%. It also gave a residual activity ([40]; compound 1.0 µM) of 95% and a residual activity ([41]; compound 1.0 µM) of 120%.

COc1ccc(C#Cc2ccc3ncc4ncn(-c5ccc(CCN)cc5)c4c3c2)cc1 gave a residual activity ([1]; compound 10.0 µM) of 25%, a residual activity ([2]; compound 10.0 µM) of 42% and a residual activity ([3]; compound 10.0 µM) of 57%. It also gave a residual activity ([4]; compound 10.0 µM) of 118%, a residual activity ([5]; compound 10.0 µM) of 75% and a residual activity ([6]; compound 10.0 µM) of 71%. For the same compound, the residual activity ([7]; compound 10.0 µM) was 95%, the residual activity ([8]; compound 10.0 µM) was 77% and the residual activity ([9]; compound 10.0 µM) was 4%. The residual activity ([10]; compound 10.0 µM) was 25%, the residual activity ([11]; compound 10.0 µM) was 8% and the residual activity ([12]; compound 10.0 µM) was 66%. It also gave a residual activity ([13]; compound 10.0 µM) of 39%, a residual activity ([14]; compound 10.0 µM) of 50% and a residual activity ([15]; compound 10.0 µM) of 71%. It also gave a residual activity ([16]; compound 10.0 µM) of 83%, a residual activity ([17]; compound 10.0 µM) of 81% and a residual activity ([18]; compound 10.0 µM) of 85%. It also gave a residual activity ([19]; compound 10.0 µM) of 43%, a residual activity ([20]; compound 10.0 µM) of 72% and a residual activity ([21]; compound 10.0 µM) of 55%. The residual activity ([22]; compound 10.0 µM) was 78%, the residual activity ([23]; compound 10.0 µM) was 50% and the residual activity ([24]; compound 10.0 µM) was 80%. The residual activity ([25]; compound 10.0 µM) was 109%, the residual activity ([26]; compound 10.0 µM) was 106% and the residual activity ([27]; compound 10.0 µM) was 3%. It also gave a residual activity ([28]; compound 10.0 µM) of 24%, a residual activity ([29]; compound 10.0 µM) of 110% and a residual activity ([30]; compound 10.0 µM) of 94%. The residual activity ([31]; compound 10.0 µM) was 88%, the residual activity ([32]; compound 10.0 µM) was 107% and the residual activity ([33]; compound 10.0 µM) was 94%. For the same compound, the residual activity ([34]; compound 10.0 µM) was 78%, the residual activity ([35]; compound 10.0 µM) was 46% and the residual activity ([36]; compound 10.0 µM) was 13%. The residual activity ([37]; compound 10.0 µM) was 39%, the residual activity ([38]; compound 10.0 µM) was 0% and the residual activity ([39]; compound 10.0 µM) was 14%. The residual activity ([40]; compound 10.0 µM) was 5% and the residual activity ([41]; compound 10.0 µM) was 99%.
